In brackets after ≈: the same amount, converted by molar mass.
Key:
B. thetaiotaomicron = type: cell-based; details: Table 14; Bacteroides thetalotaomicron 1438
Excerpt: (§1) The agar-dilution procedure described by the International Collaborative study (ICS) group was used to determine the minimum inhibitory concentrations (MIC's).

Bacteroides corrodens [1] = test: Agar-dilution MIC (anaerobes); type: cell-based; details: Table 12; 24-hour; B. corrodens 1874
Excerpt: (§2) The A41030 antibiotics, factors A, B, and C, are active against a genus of anaerobic bacteria identified as Bacteroides sp., the 24-hour MIC values being determined by the agar-dilution method, and are set forth in Table 12, which follows.

Bacteroides vulgatis [2] = test: Agar-dilution MIC (anaerobes); type: cell-based; details: Table 12; 24-hour; B. vulgatis 1563
Excerpt: as §2

[3] = test system: Fusobacterium necrophorum; test: Agar-dilution MIC (anaerobes); type: cell-based; details: Table 14; Fusobacterium necrophorum 6054A
Bacteroides corrodens [4] = test: Agar-dilution MIC (anaerobes); type: cell-based; details: Table 14; Bacteroides corrodens 1874
Clostridium difficile = type: cell-based; details: Table 14; Clostridium difficile 2994
Hemophilus influenzae = test: Agar-dilution MIC; type: cell-based
[5] = test system: Streptococcus sp. (Group D); test: Agar-dilution MIC; type: cell-based
Excerpt: as §1

Streptococcus pyogenes = test: Agar-dilution MIC; type: cell-based
Excerpt: as §1

Salmonella typhi = test: Agar-dilution MIC; type: cell-based; details: Table 17, 24 hours
Bacteroides vulgatis [6] = test: Agar-dilution MIC (anaerobes); type: cell-based; details: Table 14; Bacteroides vulgatis 1211
Pc. constellatus = test: Agar-dilution MIC (anaerobes); type: cell-based, Peptococcus constellatus; details: Table 15; Pc. constellatus 1468
Protocol: The MIC values were determined by the agar-dilution method, and are recorded in Table 15, which follows.

NC1C(=O)NC2Cc3ccc(c(Cl)c3)Oc3cc4cc(c3O)Oc3ccc(cc3Cl)C(O)C3NC(=O)C(NC(=O)C4NC(=O)C(NC2=O)c2cc(O)cc(c2)Oc2cc1ccc2O)c1cc(Cl)c(O)c(c1)-c1c(O)cc(O)cc1C(C(=O)O)NC3=O (stereo not shown) [A41030 factor A]
MIC (B. thetaiotaomicron): 64 µg/mL (≈ 51.9 µM)
MIC (Bacteroides corrodens [1]): 32 µg/mL (≈ 25.9 µM)
MIC (Bacteroides vulgatis [2]): 32 µg/mL (≈ 25.9 µM)
MIC [3]: 8 µg/mL (≈ 6.49 µM)
MIC (Bacteroides corrodens [4]): 64 µg/mL (≈ 51.9 µM)
MIC (Clostridium difficile): 32 µg/mL (≈ 25.9 µM)
MIC (Hemophilus influenzae; Table 9, strain 75-312): 8 µg/mL (≈ 6.49 µM)
MIC (Hemophilus influenzae; Table 9, strain 75-313): 16 µg/mL (≈ 13 µM)
MIC (Hemophilus influenzae; Table 9, strain 75-364): 16 µg/mL (≈ 13 µM)
MIC (Hemophilus influenzae; Table 9, strain 75-465): 32 µg/mL (≈ 25.9 µM)
MIC (Hemophilus influenzae; Table 9, strain 75-19300): 16 µg/mL (≈ 13 µM)
MIC (Hemophilus influenzae; Table 9, strain 75-90383): 16 µg/mL (≈ 13 µM)
MIC (Hemophilus influenzae; Table 9, strain 4842): 8 µg/mL (≈ 6.49 µM)
MIC (Hemophilus influenzae; Table 9, strain A. Hall): 16 µg/mL (≈ 13 µM)
MIC (Hemophilus influenzae; Table 9, strain Bruno): 16 µg/mL (≈ 13 µM)
MIC (Hemophilus influenzae; Table 9, strain G. Newton): 32 µg/mL (≈ 25.9 µM)
MIC (Hemophilus influenzae; Table 9, strain Howard): 16 µg/mL (≈ 13 µM)
MIC (Hemophilus influenzae; Table 9, strain Miller): 16 µg/mL (≈ 13 µM)
MIC (Hemophilus influenzae; Table 9, strain O. Steele): 16 µg/mL (≈ 13 µM)
MIC (Hemophilus influenzae; Table 9, strain P. Wylie): 16 µg/mL (≈ 13 µM)
MIC (Hemophilus influenzae; Table 9, strain R251): 16 µg/mL (≈ 13 µM)
MIC (Hemophilus influenzae; Table 9, strain R259): 16 µg/mL (≈ 13 µM)
MIC (Hemophilus influenzae; Table 9, strain R272): 16 µg/mL (≈ 13 µM)
MIC (Hemophilus influenzae; Table 9, strain R274): 16 µg/mL (≈ 13 µM)
MIC (Hemophilus influenzae; Table 9, strain S. Ford): 16 µg/mL (≈ 13 µM)
MIC (Hemophilus influenzae; Table 17, 24 hours, Haemophilus influenzae 251): 2 µg/mL (≈ 1.62 µM)
MIC (Hemophilus influenzae; Table 17, 24 hours, Haemophilus influenzae Brun): 8 µg/mL (≈ 6.49 µM)
MIC (Hemophilus influenzae; Table 18, 24 hours, Haemophilus influenzae 76): 4 µg/mL (≈ 3.24 µM)
MIC (Hemophilus influenzae; Table 18, 24 hours, Haemophilus influenzae 312): 2 µg/mL (≈ 1.62 µM)
MIC (Hemophilus influenzae; Table 18, 24 hours, Haemophilus influenzae 4842): 2 µg/mL (≈ 1.62 µM)
MIC (Hemophilus influenzae; Table 18, 24 hours, Haemophilus influenzae 16836): 4 µg/mL (≈ 3.24 µM)
MIC (Hemophilus influenzae; Table 18, 24 hours, Haemophilus influenzae Bond): 2 µg/mL (≈ 1.62 µM)
MIC (Hemophilus influenzae; Table 18, 24 hours, Haemophilus influenzae C.L.): 4 µg/mL (≈ 3.24 µM)
MIC (Hemophilus influenzae; Table 18, 24 hours, Haemophilus influenzae Mx366): 2 µg/mL (≈ 1.62 µM)
MIC (Hemophilus influenzae; Table 18, 24 hours, Haemophilus influenzae Mx371): 2 µg/mL (≈ 1.62 µM)
MIC ([5]; Table 11, Streptococcus sp. (Group D) 238): 0.25 µg/mL (≈ 0.203 µM)
MIC ([5]; Table 11, Streptococcus sp. (Group D) 282): 0.25 µg/mL (≈ 0.203 µM)
MIC ([5]; Table 11, Streptococcus sp. (Group D) 9901): 0.25 µg/mL (≈ 0.203 µM)
MIC ([5]; Table 11, Streptococcus sp. (Group D) 12253F): 0.25 µg/mL (≈ 0.203 µM)
MIC ([5]; Table 11, Streptococcus sp. (Group D) Guze): 0.25 µg/mL (≈ 0.203 µM)
MIC ([5]; Table 17, 24 hours, Streptococcus sp. Group D 9960): 2 µg/mL (≈ 1.62 µM)
MIC ([5]; Table 17, 24 hours, Streptococcus sp. Group D X66): 1 µg/mL (≈ 0.811 µM)
MIC ([5]; Table 18, 24 hours, Streptococcus sp. Group D 2041): 0.5 µg/mL (≈ 0.405 µM)
MIC ([5]; Table 18, 24 hours, Streptococcus sp. Group D 2058): 0.5 µg/mL (≈ 0.405 µM)
MIC ([5]; Table 18, 24 hours, Streptococcus sp. Group D 8043): 0.25 µg/mL (≈ 0.203 µM)
MIC ([5]; Table 18, 24 hours, Streptococcus sp. Group D 9901): 1 µg/mL (≈ 0.811 µM)
MIC ([5]; Table 18, 24 hours, Streptococcus sp. Group D 9960): 0.5 µg/mL (≈ 0.405 µM)
MIC ([5]; Table 18, 24 hours, Streptococcus sp. Group D 12253F): 0.25 µg/mL (≈ 0.203 µM)
MIC ([5]; Table 18, 24 hours, Streptococcus sp. Group D Mx161): 0.25 µg/mL (≈ 0.203 µM)
MIC ([5]; Table 18, 24 hours, Streptococcus sp. Group D X66): 0.25 µg/mL (≈ 0.203 µM)
MIC (Streptococcus pyogenes; Table 11, S. pyogenes 9943): 0.25 µg/mL (≈ 0.203 µM)
MIC (Streptococcus pyogenes; Table 11, S. pyogenes 10389): 0.25 µg/mL (≈ 0.203 µM)
MIC (Streptococcus pyogenes; Table 11, S. pyogenes 12344): 0.5 µg/mL (≈ 0.405 µM)
MIC (Streptococcus pyogenes; Table 11, S. pyogenes C203): 0.25 µg/mL (≈ 0.203 µM)
MIC (Streptococcus pyogenes; Table 11, S. pyogenes M-6517): 0.25 µg/mL (≈ 0.203 µM)
MIC (Streptococcus pyogenes; Table 17, 24 hours, Streptococcus pyogenes C203): 0.5 µg/mL (≈ 0.405 µM)
MIC (Streptococcus pyogenes; Table 18, 24 hours, Streptococcus pyogenes C203): 0.25 µg/mL (≈ 0.203 µM)
MIC (Salmonella typhi; Salmonella typhi 1335): > 128 µg/mL
MIC (Salmonella typhi; Salmonella typhi X514): > 128 µg/mL
MIC (Bacteroides vulgatis [6]): 32 µg/mL (≈ 25.9 µM)
MIC (Pc. constellatus): 0.5 µg/mL (≈ 0.405 µM)

Reference: patent publication US4559323A, “A41030 Antibiotics” (Eli Lilly and Company, priority 1984, dated 1985)
